Tests used:
[1] = Inhibition of LAG-3/FGL1 (unknown origin) interaction incubated for 2 hrs by TR-FRET assay; set-up: species or system Homo sapiens
[2] = Inhibition of LAG-3-MHCII (unknown origin) interaction incubated for 2 hrs by TR-FRET assay; set-up: species or system Homo sapiens
[3] = Inhibition of LAG-3/FGL1 (unknown origin) interaction by ELISA analysis; set-up: species or system Homo sapiens
[4] = species: Homo sapiens; test: Inhibition of LAG-3-MHCII (unknown origin) interaction at 10 to 30 uM incubated for 2 hrs by TR-FRET assay relative to control; details: dose 10-30 µM
[5] = tested on: Jurkat T; test: (§1) Inhibition of LAG-3-MHCII interaction in human Jurkat T cells expressing human LAG-3/luciferase reporter co-cultured with MHCII antigen presenting cells assessed as increase in luminescence by Bio-Glo reagent based assay; assay type: cell-based
[6] = as §1; assay type: cell-based

Structure (SMILES) | IC50 [1] | IC50 [2] | IC50 [3] | inhibition [4] | inhibition [5] | IC50 [6]
Cc1cc(C(=O)COc2ccc(C(N)=O)cc2)c(C)n1C | > 50 µM | > 50 µM |  |  |  | 
Cc1cc(C(=O)COc2ccccc2C(=O)Nc2ccccc2)c(C)[nH]1 | > 50 µM | > 50 µM |  |  |  | 
CC(=O)Nc1ccc(OCC(=O)c2cc(C)n(-c3ccc(Cl)c(Cl)c3)c2C)cc1 | 10.3 µM | 11.2 µM |  |  |  | 
CC(=O)Nc1ccc(OCC(=O)c2cc(C)n(C(C)C)c2C)cc1 | > 50 µM | > 50 µM |  |  |  | 
C=CCn1c(C)cc(C(=O)COc2ccccc2C(=O)Nc2ccccc2)c1C | > 50 µM | > 50 µM |  |  |  | 
Cc1cc(C(=O)COc2ccc(NC(=O)c3ccccc3)cc2)c(C)n1Cc1ccco1 | 9.94 µM | 9.38 µM |  |  |  | 
CCCn1c(C)cc(C(=O)COc2ccccc2NC(C)=O)c1C | > 50 µM | > 50 µM |  |  |  | 
CC(=O)Nc1ccc(OCC(=O)c2cc(C)n(-c3ccc(OC(F)F)cc3)c2C)cc1 | 16.5 µM | 12.4 µM |  |  |  | 
CC(=O)Nc1ccc(OCC(=O)c2cc(C)n(Cc3ccccc3)c2C)cc1 | 20.4 µM | 18.3 µM |  |  |  | 
Cc1cc(C(=O)COc2ccc(N3CCCC3=O)cc2)c(C)n1C1CC1 | 20.4 µM | 17.2 µM |  |  |  | 
CC(=O)Nc1cccc(OCC(=O)c2cc(C)n(-c3ccc(C)c(C)c3)c2C)c1 | 25.5 µM | 31.4 µM |  |  |  | 
Cc1ccc(-n2c(C)cc(C(=O)COc3ccc(NC(=O)c4ccc(C(C)(C)C)cc4)cc3)c2C)cc1 | 18.2 µM | 19.3 µM |  |  |  | 
Cc1cc(C(=O)COc2ccc(C(N)=O)cc2)c(C)n1CCc1ccc(F)cc1 | 22.4 µM | 18.3 µM |  |  |  | 
CC(=O)Nc1ccc(OCC(=O)c2cc(C)n(CCc3ccccc3)c2C)cc1 | 28.5 µM | 23.4 µM |  |  |  | 
CCC(=O)c1ccc(OCC(=O)c2cc(C)n(Cc3ccco3)c2C)cc1 | 28.7 µM | 20.4 µM |  |  |  | 
C=CCn1c(C)cc(C(=O)COc2ccc(NC(=O)c3cccc([N+](=O)[O-])c3)cc2)c1C | > 50 µM | > 50 µM |  |  |  | 
Cc1cc(C(=O)COc2ccccc2C(=O)Nc2ccccc2)c(C)n1CC1CCCO1 (stereo not drawn) | 14.2 µM | 18.4 µM |  |  |  | 
Cc1cc(C(=O)COc2ccc(NC(=O)c3ccco3)cc2)c(C)n1-c1ccccc1 | 13.7 µM | 8.36 µM |  |  |  | 
CC(=O)Nc1ccc(OCC(=O)c2cc(C)n(CCc3ccc(F)cc3)c2C)cc1 | 21.4 µM | 28.4 µM |  |  |  | 
COCCCn1c(C)cc(C(=O)COc2ccc(NC(C)=O)cc2)c1C | > 50 µM | > 50 µM |  |  |  | 
CC(=O)Nc1ccc(OCC(=O)c2cc(C)n(-c3ccccc3F)c2C)cc1 | 29.4 µM | 21.3 µM |  |  |  | 
Cc1cc(C(=O)COc2ccc(NC(=O)c3ccco3)cc2)c(C)n1C | 16.7 µM | 14.8 µM | 18.5 µM | > 90% |  | 
CCCn1c(C)cc(C(=O)COc2ccc(NC(C)=O)cc2)c1C | > 50 µM | > 50 µM |  |  |  | 
CC(=O)Nc1ccccc1OCC(=O)c1cc(C)n(CCc2ccc(F)cc2)c1C | 32.7 µM | 28.4 µM |  |  |  | 
Cc1ccc(-n2c(C)cc(C(=O)COc3ccc(C(N)=O)cc3)c2C)cc1 | 29.4 µM | 26.9 µM |  |  |  | 
COc1ccccc1C(=O)Nc1ccc(OCC(=O)c2cc(C)n(C)c2C)cc1 | 35.4 µM | 25.7 µM |  |  |  | 
Cc1cc(C(=O)COc2ccc(NC(=O)c3ccco3)cc2)c(C)n1Cc1ccccc1 | 6.52 µM | 4.21 µM |  |  | Dose-Dependent Effect | 6.95 µM
